Assay results published in US9889146B2, “Benzoxaborole compounds and uses thereof” (priority 2012, dated 2018).
Read-outs that look alike come from different tables or passages of the source.

Tested on: E. coli clinical isolates from subject E. coli 2
Assay: GSK2251052 MIC of clinical isolates, subject E. coli 2
Format: cell-based
Conditions: for MIC: Escherichia coli, read-out: GSK2251052 MIC GSK results
Method: Minimum inhibitory concentrations (MICs) were determined using the CLSI (Clinical and Laboratory Standards Institute, formerly NCCLS) recommended broth microdilution methodology [NCCLS, 2003] using defined media.
Almost all clinical isolates were determined to contain T247I in addition to a second mutation in editing domains 1 or 2. The second mutations include Asp251Asn, Ala323 Val, Arg344Cys/His and Asp345Ala. On Day 11 and at Follow Up a double mutant (R344H; D345A) was also isolated (see Table 14). For these clinical isolates, five independent colonies were characterized from day 6 to late follow-up, and leuS and promoter regions were sequenced from all isolates.

SMILES: NC[C@H]1OB(O)c2c(OCCCO)cccc21 [GSK2251052, (S)-3-aminomethyl-7-(3-hydroxy-propoxy)-3h-benzo[c][1,2]oxaborol-1-ol]
- MIC (24 h, subject E. Coli 2, day 1, no LeuRS change): 0.25 µg/mL
- MIC (48 h): 512 µg/mL
- MIC (72 h): 512 µg/mL
- MIC (96 h): 512 µg/mL
- MIC (120 h): 512 µg/mL
- MIC (144 h): 1020 µg/mL
- MIC (168 h): 1020 µg/mL
- MIC (192 h): 1020 µg/mL
- MIC (216 h): 1020 µg/mL
- MIC (240 h): 1020 µg/mL
- MIC (264 h): 1020 µg/mL
- MIC (288 h): 1020 µg/mL
- MIC (312 h): 1020 µg/mL
- MIC: 1020 µg/mL
- GSK2251052 MIC GSK results (subject E. Coli 2, Follow-up, 5x R344H, D345A): 1024 µg/mL
- GSK2251052 MIC GSK results (subject E. Coli 2, day 9, 4x T247I, D251N): 1024 µg/mL
- GSK2251052 MIC GSK results (subject E. Coli 2, day 10, 3x T247I, A323V): 1024 µg/mL
- GSK2251052 MIC GSK results (subject E. Coli 2, day 11, 4x R344H, D345A): 1024 µg/mL
- GSK2251052 MIC GSK results (subject E. Coli 2, day 12, 4x T247I, A323V): 1024 µg/mL
